# Experimental data reported in US11559527B2 (priority 2017, dated 2023).
# Legend:
# Type in all cases: cell-based, Human
# MCF7 cells [1] = assay: Bradford assay (protein content as indicator of cell viability); conditions: 2 days
# Description: The inventors sought to evaluate whether mDIVI-1-induced inhibition of DRP1 has repercussion on the viability of MCF7 cells. […] Similar results were obtained using the Bradford assay, which measures protein content, as an indicator of cell viability.
# EXTRACELLULAR FLUX […] AND BRADFORD ASSAY: Extracellular acidification rate (ECAR) and oxygen consumption rate (OCR) were measured in a XF96 Extracellular Flux Analyzer (Seahorse Biosciences). Briefly, 1×10^4 MCF7 cells per well were seeded in XF96 plates and incubated with complete medium. When cells were attached, mDIVI-1 and vehicle treatments were added. Six replicates were run for each condition. After 48 hours, un-buffered DMEM XF medium supplemented with 2 mM glutamine (pH 7.4) was added to the cells, and placed in a 37° C. CO2-free incubator for 1 hour. Ten mM glucose, 1 μM oligomycin and 100 mM 2-deoxyglucose (2-DG) were injected into the media at different time points and ECAR was measured. Likewise, ECAR and OCR were quantified using un-buffered DMEM XF medium supplemented with 2 mM glutamine, 2 mM sodium pyruvate and 10 mM glucose. One μM oligomycin, 0.9 μM FCCP and 1 μM rotenone and antimycin A were injected into the media at different time points and OCR and ECAR were measured. […] All parameters were calculated according to manufacturer.
# MCF7 cells [2] = assay: Mitochondrial superoxide (MitoSOX, flow cytometry); conditions: both concentrations of mDIVI-1, compared to vehicle
# Text: (§1) Inhibition of the mitochondrial fission impacts on other mitochondrial processes, such as mitochondrial metabolism and general and mitochondrial oxidative stress. To confirm, MCF7 cells were stained with MitoSOX and CM-H2DCFDA, and mitochondrial superoxide and total ROS were quantified by flow cytometry. […] Whereas the increase in general ROS goes in line with the increase in mitochondrial content, the boost in the levels of mitochondrial superoxide in mDIV1-treated cells is actually bigger than the observed increased mitochondrial content.
# (§2) LEVELS OF REACTIVE OXYGEN SPECIES AND MITOCHONDRIAL SUPEROXIDE: For both assays, 2×10^5 MCF7 cells were seeded in 35 mm plates. […] Reactive oxygen species (ROS) production was measured using CM-H2DCFDA (C6827, Invitrogen). Briefly, cells were incubated for 20 minutes at 37° C. with 1 μM CM-H2DCFDA diluted in PBS and then placed in complete media for 20 minutes at 37° C. in the dark, to render the dye fluorescent, according to the manufacturer. Mitochondrial superoxide was measured using MitoSOX Red Mitochondrial Superoxide Indicator (M36008, ThermoFisher Scientific). […] ROS signal and MitoSOX signal was quantified as mean fluorescent intensity of the viable cell population in a Fortessa flow cytometer (BD Bioscience). Results were analysed using FlowJo software.
# MCF7 cells [3] = assay: Reactive oxygen species (CM-H2DCFDA, flow cytometry)
# Text: as §1, §2
# MCF7 breast cancer cells = assay: Tumorsphere formation assay, MCF7; conditions: five days, vs vehicle
# Description: One of the gold standard techniques for the study and identification of CSCs is the sphere formation assay, an in vitro culture system that enriches for CSCs. Under these anchorage-independent culture conditions, CSCs preferentially form the so-called tumorspheres, whereas more differentiated cells die rapidly.
# TUMORSPHERE FORMATION ASSAY: A single cell suspension was prepared using enzymatic (1× Trypsin-EDTA, T3924, Sigma Aldrich), and manual disaggregation (25 gauge needle). […] After 5 days of culture in a humidified incubator at 37° C., tumorspheres bigger than 50 μm were counted using an eye piece graticule.
# Hedgehog signaling = assay: Luciferase reporter assay MCF7-GFP-GLI(luc); conditions: 50 μM, 2 and 5 days
# Text: (§3) Mitochondrial fusion and fission may also have an impact in signaling pathways that regulate stem cell proliferation and survival. […] A range of reporter MCF7-GFP cell lines were generated, including MCF7-GFP-GLI(luc), MCF7-GFP-Rbp/Jk(luc), MCF7-GFP-SMAD(luc) and MCF7-GFP-TCF/LEF(luc), to assess Hedgehog signaling, Notch signaling, TGFβ signaling, and Wnt signaling, respectively. […] The data is shown in the four data plots in FIG. 9.
# (§4) LUCIFERASE ASSAY: The Cignal Lenti reporter assay (luc) was used to monitor the activity of several signalling pathways in MCF7-GFP cells as explained previously. Luciferase Assay System (E1501, Promega) was performed according to manufacturer's instructions. 1×10^4 MCF7 […] were seeded in black-walled 96 well plates. When cells were attached, drug treatments were added for 18, 48 hours and 5 days. After treatment, Luciferase Assay was performed according to manufacturer's instructions and light signal was acquired in the Xenogen VivoVision IVIS Lumina. Results were normalized by SRB staining of cells grown in 96-well plates in parallel.
# (§5) SULFORHODAMINE B (SRB) ASSAY: SRB (S9012, Sigma) measures total biomass by staining cellular proteins. […] Absorbance was spectrophotometrically measured at 562 nm in a FluoStar Omega plate reader (BMG Labtech). […]
# Wnt signaling = assay: Luciferase reporter assay MCF7-GFP-TCF/LEF(luc); conditions: 50 μM, 2 and 5 days
# Text: as §3, §4, §5
compound,measurement,setting,value
"COc1cc(-n2c(S)nc3ccccc3c2=O)c(Cl)cc1Cl [mDIVI-1, 3-(2,4-Dichloro-5-methoxyphenyl)-2-sulfanyl-4(3H)-quinazolinone]",MCF7 protein content,MCF7 cells [1]; 20 μM,significantly reduced
same,MCF7 protein content,MCF7 cells [1]; 50 μM,significantly reduced
same,mitochondrial superoxide production (MitoSOX),MCF7 cells [2],significantly increased
same,production of total ROS,MCF7 cells [3]; 5 days of treatment,slight trend toward an increase
same,general oxidative stress levels,MCF7 cells [3]; after exposure to mDIVI-1,did not change
same,decrease of tumorsphere number,"MCF7 breast cancer cells; MCF7, 10 μM",50%
same,decrease of tumorsphere number,"MCF7 breast cancer cells; MCF7, 50 μM",80%
same,decrease of tumorsphere number,"MCF7 breast cancer cells; MCF7, 100 μM",95%
same,Hedgehog/GLI pathway luciferase activity,Hedgehog signaling,inhibition
same,Wnt/TCF pathway luciferase activity,Wnt signaling,inhibition
